# Results reported in patent publication US20110130384A1, “AMIDE COMPOUND” (TAKEDA PHARMACEUTICAL COMPANY LIMITED, priority 2008, published 2011).
# Target: T1, human GPR52 (Homo sapiens, UniProt Q9Y2T5)
# T1 construct: expressed in transfected cells; host or cells: CHO(dhfr-) cells
# Assay: Increase of intracellular cAMP concentration in human GPR52-expressing CHO cell (AlphaScreen cAMP assay)
# Format: cell-based
# Conditions: 1 μM test compound, human GPR52-expressing CHO(dhfr-) cells, 37° C. for 30 min; intracellular cAMP with 1 μM Reference Example 124 = 100%, DMSO = 0%
# Procedure: Increase of Intracellular cAMP Concentration in Human GPR52-Expressing CHO Cell
# Using OptiPlate-384 (PerkinElmer Inc.), 1×10^4 human GPR52-expressing CHO(dhfr-) cells were incubated together with 1 μM of a test compound in an assay buffer (30 μL, HBSS (containing Ca^2+ and Mg^2+), 0.5% BSA, 100 μm IBMX, 100 μm Ro20-1724, 5 mM HEPES (pH 7.55)) at 37° C. for 30 min. Thereafter, according to the protocol of AlphaScreen cAMP Assay Kit (PerkinElmer Inc.), the intracellular cAMP concentration was measured by EnVision (PerkinElmer Inc.). The GPR52 agonist activity was calculated, assuming the intracellular cAMP concentration in the presence of 1 μM 3-(6-(2-(3,4-dimethoxyphenyl)ethoxy)pyridin-2-yl)-N-(2-pyrrolidin-1-ylethyl)benzamide (Reference Example 124) to be 100% and assuming the intracellular cAMP concentration when DMSO was added instead of the test compound to be 0%.
# T1 sequence (Q9Y2T5 whole entry): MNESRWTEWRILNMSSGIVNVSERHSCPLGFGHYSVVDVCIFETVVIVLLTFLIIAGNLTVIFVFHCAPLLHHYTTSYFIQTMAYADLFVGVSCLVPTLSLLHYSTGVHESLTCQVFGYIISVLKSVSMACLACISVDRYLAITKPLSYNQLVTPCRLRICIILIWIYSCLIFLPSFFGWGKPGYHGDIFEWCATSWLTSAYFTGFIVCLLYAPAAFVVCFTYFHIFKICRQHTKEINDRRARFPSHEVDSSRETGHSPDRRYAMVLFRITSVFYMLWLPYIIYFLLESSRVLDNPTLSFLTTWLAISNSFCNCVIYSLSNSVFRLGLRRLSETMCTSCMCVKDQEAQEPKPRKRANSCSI
row,Structure (SMILES),GPR52 agonist activity (%)
1,"O=C(NCCO)c1cccc(-c2ccc3c(c2)N(Cc2cc(Cl)cc(Cl)c2)CC3)c1 [Example 16, 3-[1-(3,5-dichlorobenzyl)-2,3-dihydro-1H-indol-6-yl]-N-(2-hydroxyethyl)benzamide]",84
2,"O=C(NCCO)c1cccc(-c2ccc3c(n2)N(Cc2ccc(Cl)cc2Cl)CC3)c1 [Example 29, 3-[1-(2,4-dichlorobenzyl)-2,3-dihydro-1H-pyrrolo[2,3-b]pyridin-6-yl]-N-(2-hydroxyethyl)benzamide]",76
3,"O=C(NCCO)c1cccc(-c2ccc3c(n2)N(c2ccc(Cl)cc2Cl)CC3)c1 [Example 35, 3-[1-(2,4-dichlorophenyl)-2,3-dihydro-1H-pyrrolo[2,3-b]pyridin-6-yl]-N-(2-hydroxyethyl)benzamide]",81
4,"CN(C)CCNC(=O)c1cccc(-c2ccc3c(c2)C(c2cc(Cl)ccc2Cl)CC3)c1 (stereo not shown) [Example 51, 3-[3-(2,5-dichlorophenyl)-2,3-dihydro-1H-inden-5-yl]-N-[2-(dimethylamino)ethyl]benzamide]",89
5,"O=C(NCCO)c1cccc(-c2ccc3c(c2)C(c2ccc(Cl)cc2Cl)CC3)c1 (stereo not shown) [Example 64, 3-[3-(2,4-dichlorophenyl)-2,3-dihydro-1H-inden-5-yl]-N-(2-hydroxyethyl)benzamide]",84
6,"O=C(NC(CO)CO)c1cccc(-c2ccc3c(c2)C(c2ccc(Cl)cc2Cl)CC3)c1 (stereo not shown) [Example 65, 3-[3-(2,4-dichlorophenyl)-2,3-dihydro-1H-inden-5-yl]-N-[2-hydroxy-1-(hydroxymethyl)ethyl]benzamide]",91
7,"C[S+]([O-])CCNC(=O)c1cccc(-c2ccc3c(c2)C(c2ccc(Cl)cc2Cl)CC3)c1 (stereo not shown) [Example 66, 3-[3-(2,4-dichlorophenyl)-2,3-dihydro-1H-inden-5-yl]-N-[2-(methylsulfinyl)ethyl]benzamide]",88
8,"CS(=O)(=O)CCNC(=O)c1cccc(-c2ccc3c(c2)C(c2ccc(Cl)cc2Cl)CC3)c1 (stereo not shown) [Example 67, 3-[3-(2,4-dichlorophenyl)-2,3-dihydro-1H-inden-5-yl]-N-[2-(methylsulfonyl)ethyl]benzamide]",73
9,"O=C(NCCO)c1cccc(-c2ccc3c(c2)C(Oc2ccc(Cl)cc2Cl)CC3)c1 (stereo not shown) [Example 74, 3-[3-(2,4-dichlorophenoxy)-2,3-dihydro-1H-inden-5-yl]-N-(2-hydroxyethyl)benzamide]",76
10,"C[S+]([O-])CCNC(=O)c1cccc(-c2ccc3c(c2)C(Oc2ccc(Cl)cc2Cl)CC3)c1 (stereo not shown) [Example 76, 3-[3-(2,4-dichlorophenoxy)-2,3-dihydro-1H-inden-5-yl]-N-[2-(methylsulfinyl)ethyl]benzamide]",80
11,"CS(=O)(=O)CCNC(=O)c1cccc(-c2ccc3c(c2)C(Oc2ccc(Cl)cc2Cl)CC3)c1 (stereo not shown) [Example 77, 3-[3-(2,4-dichlorophenoxy)-2,3-dihydro-1H-inden-5-yl]-N-[2-(methylsulfonyl)ethyl]benzamide]",73
12,"O=C(NC1CC1)c1cccc(-c2ccc3c(c2)C(Oc2ccc(Cl)cc2Cl)CC3)c1 (stereo not shown) [Example 78, N-cyclopropyl-3-[3-(2,4-dichlorophenoxy)-2,3-dihydro-1H-inden-5-yl]benzamide]",59
13,"O=C(Nc1cccnc1)c1cccc(-c2ccc3c(c2)C(Oc2ccc(Cl)cc2Cl)CC3)c1 (stereo not shown) [Example 80, 3-[3-(2,4-dichlorophenoxy)-2,3-dihydro-1H-inden-5-yl]-N-pyridin-3-ylbenzamide]",70
14,"O=C(Nc1nccs1)c1cccc(-c2ccc3c(c2)C(Oc2ccc(Cl)cc2Cl)CC3)c1 (stereo not shown) [Example 82, 3-[3-(2,4-dichlorophenoxy)-2,3-dihydro-1H-inden-5-yl]-N-1,3-thiazol-2-ylbenzamide]",67
15,"NC(=O)CNC(=O)c1cccc(-c2ccc3c(c2)C(Oc2ccc(Cl)cc2Cl)CC3)c1 (stereo not shown) [Example 83, N-(2-amino-2-oxoethyl)-3-[3-(2,4-dichlorophenoxy)-2,3-dihydro-1H-inden-5-yl]benzamide]",70
16,"O=C(NCCO)c1cccc(-c2ccc3c(c2)C(Nc2ccc(Cl)cc2Cl)CO3)c1 (stereo not shown) [Example 87, 3-[3-[(2,4-dichlorophenyl)amino]-2,3-dihydro-1-benzofuran-5-yl]-N-(2-hydroxyethyl)benzamide]",59
17,"O=C(NCCO)c1cccc(-c2ccc3c(c2)C(c2ccc(Cl)cc2Cl)CCO3)c1 (stereo not shown) [Example 90, 3-[4-(2,4-dichlorophenyl)-3,4-dihydro-2H-chromen-6-yl]-N-(2-hydroxyethyl)benzamide]",65

# Results, then the compound that gave them:
row,GPR52 agonist activity (%),Structure (SMILES)
1,80,"COc1ccc(CCn2ccc3ccc(-c4cccc(C(=O)NCCN(C)C)c4)nc32)cc1OC [Example 25, 3-[1-[2-(3,4-dimethoxyphenyl)ethyl]-1H-pyrrolo[2,3-b]pyridin-6-yl]-N-[2-(dimethylamino)ethyl]benzamide]"
2,62,"COc1ccc(CCn2ccc3ccc(-c4cccc(C(=O)NCCC#N)c4)nc32)cc1OC [Example 26, N-(2-cyanoethyl)-3-[1-[2-(3,4-dimethoxyphenyl)ethyl]-1H-pyrrolo[2,3-b]pyridin-6-yl]benzamide]"
3,64,"O=C(NCCO)c1cccc(-c2ccc3ccn(Cc4ccc(Cl)cc4Cl)c3n2)c1 [Example 28, 3-[1-(2,4-dichlorobenzyl)-1H-pyrrolo[2,3-b]pyridin-6-yl]-N-(2-hydroxyethyl)benzamide]"
4,72,"N#CCCNC(=O)c1cccc(-c2ccc3c(n2)N(Cc2ccc(Cl)cc2Cl)CC3)c1 [Example 30, N-(2-cyanoethyl)-3-[1-(2,4-dichlorobenzyl)-2,3-dihydro-1H-pyrrolo[2,3-b]pyridin-6-yl]benzamide]"
5,62,"O=C(NCCCO)c1cccc(-c2ccc3c(n2)N(Cc2ccc(Cl)cc2Cl)CC3)c1 [Example 31, 3-[1-(2,4-dichlorobenzyl)-2,3-dihydro-1H-pyrrolo[2,3-b]pyridin-6-yl]-N-(3-hydroxypropyl)benzamide]"
6,61,"O=C(NCCO)c1cccc(-c2ccc3ccn(-c4ccc(Cl)cc4Cl)c3n2)c1 [Example 33, 3-[1-(2,4-dichlorophenyl)-1H-pyrrolo[2,3-b]pyridin-6-yl]-N-(2-hydroxyethyl)benzamide]"
7,74,"N#CCCNC(=O)c1cccc(-c2ccc3c(n2)N(c2ccc(Cl)cc2Cl)CC3)c1 [Example 34, N-(2-cyanoethyl)-3-[1-(2,4-dichlorophenyl)-2,3-dihydro-1H-pyrrolo[2,3-b]pyridin-6-yl]benzamide]"
8,52,"N#CCCNC(=O)c1cccc(-c2ncc3ccn(Cc4ccc(Cl)cc4Cl)c3n2)c1 [Example 40, N-(2-cyanoethyl)-3-[7-(2,4-dichlorobenzyl)-7H-pyrrolo[2,3-d]pyrimidin-2-yl]benzamide]"
9,79,"COc1ccc(CCn2cnc3ccc(-c4cccc(C(=O)NCCN5CCCC5)c4)nc32)cc1OC [Example 45, 3-[3-[2-(3,4-dimethoxyphenyl)ethyl]-3H-imidazo[4,5-b]pyridin-5-yl]-N-(2-pyrrolidin-1-ylethyl)benzamide]"
10,63,"N#CCCNC(=O)c1cccc(-c2ccc3c(c2)N(c2ccc(Cl)cc2Cl)CCO3)c1 [Example 47, N-(2-cyanoethyl)-3-[4-(2,4-dichlorophenyl)-3,4-dihydro-2H-1,4-benzoxazin-6-yl]benzamide]"
11,73,"N#CCCNC(=O)c1cccc(-c2ccc3c(c2)C(Oc2ccc(Cl)cc2Cl)CC3)c1 (stereo not shown) [Example 73, N-(2-cyanoethyl)-3-[3-(2,4-dichlorophenoxy)-2,3-dihydro-1H-inden-5-yl]benzamide]"
